Laboratory results reported in US6855730B2, “3-methylidenyl-2-indolinone modulators of protein kinase” (Sugen, Inc., priority 1998, dated 2005).

Legend:
[1] = target: T1, 3T3 cell line genetically engineered to express human EGF-R (Homo sapiens, UniProt P00533); assay: EGF-induced BrdU incorporation assay; assay type: cell-based; conditions: read-out: BrdU EGF driven IC50
T1 construct: expressed in transfected cells; host or cells: 3T3

[2] = test system: HUV-EC-C cells (VEGF, Flk-1/KDR); assay: HUV-EC-C assay, VEGF-stimulated 3H-thymidine incorporation; assay type: cell-based; conditions: Homo sapiens, read-out: HUVEC-VEGF IC50

SMILES	IC50 [1]	IC50 [2]
COc1c(C(C)C)cc(/C=C2/C(=O)Nc3ccccc32)cc1C(C)C [Example 1, 3-(3,5-Diisopropyl-4-methoxybenzylidene)-1,3-dihydroindol-2-one]	6600 nM	–
COc1c(C(C)C)cc(/C=C2/C(=O)Nc3ccc(Cl)cc32)cc1C(C)C [Example 2, 5-Chloro-3-(3,5-diisopropyl-4-methoxybenzylidene)-1,3-dihydroindol-2-one]	6500 nM	–
O=C(O)CCc1c(/C=C2\C(=O)Nc3ccc(Cl)cc32)[nH]c2c1CCCC2 [Example 191, 3-[2-(5-Chloro-2-oxo-1,2-dihydroindol-3-ylidenemethyl)-4,5,6,7-tetrahydro-1H-indol-3-yl]-propionic acid]	–	0.04 nM
O=C(O)CCc1c(/C=C2\C(=O)Nc3ccc(Br)cc32)[nH]c2c1CCCC2 [Example 192, 3-[2-(5-Bromo-2-oxo-1,2-dihydroindol-3-ylidenemethyl)-4,5,6,7-tetrahydro-1H-indol-3yl]-propionic acid]	–	0.3 nM
Cc1ccc2c(c1)/C(=C/c1[nH]c3c(c1CCC(=O)O)CCCC3)C(=O)N2 [Example 194, 3-[2-(5-Methyl-2-oxo-1,2-dihydroindol-3-ylidenemethyl)-4,5,6,7-tetrahydro-1H-indol-3-yl]-propionic acid]	–	1 nM
Cc1c[nH]c(/C=C2\C(=O)Nc3ccccc32)c1CCC(=O)O [Example 215, 3-[4-Methyl-2-(2-oxo-1,2-dihydroindol-3-ylidenemethyl)-1H-pyrrol-3-yl]-propionic acid]	> 100000 nM	–
Cc1c[nH]c(/C=C2\C(=O)Nc3cccc(C)c32)c1CCC(=O)O [Example 218, 3-[2-(4-Methyl-2-oxo-1,2-dihydroindol-3-ylidenemethyl)-4-methyl-1H-pyrrol-3-yl]-propionic acid]	43500 nM	< 70 nM
Cc1c[nH]c(C=C2C(=O)Nc3cc(Cl)ccc32)c1CCC(=O)O [Example 219, 3-[2-(6-Chloro-2-oxo-1,2-dihydroindol-3-ylidenemethyl)-4-methyl-1H-pyrrol-3-yl]-propionic acid]	> 50000 nM	–
Cc1c[nH]c(/C=C2\C(=O)Nc3ccc(Br)cc32)c1CCC(=O)O [Example 220, 3-[2-(5-Bromo-2-oxo-1,2-dihydroindol-3-ylidenemethyl)-4-methyl-1H-pyrrol-3-yl]-propionic acid]	> 50000 nM	40 nM

Other lines, results leading:

IC50 [1]	IC50 [2]	SMILES
–	20 nM	COc1ccc2c(c1)NC(=O)/C2=C\c1[nH]c2c(c1CCC(=O)O)CCCC2 [Example 196, 3-[2-(6-Methoxy-2-oxo-1,2-dihydroindol-3-ylidenemethyl)-4,5,6,7-tetrahydro-1H-indol-3-yl]-propionic acid]
–	< 3 nM	CN(C)C(=O)CCc1c(/C=C2\C(=O)Nc3ccccc32)[nH]c2c1CCCC2 [Example 197, N,N-Dimethyl-3-[2-(2-oxo-1,2-dihydroindol-3-ylidenemethyl)-4,5,6,7-tetrahydro-1H-indol-3-yl]-propionamide]
–	< 30 nM	NC(=O)CCc1c(/C=C2\C(=O)Nc3ccccc32)[nH]c2c1CCCC2 [Example 199, 3-[2-(2-Oxo-1,2-dihydroindol-3-ylidenemethyl)-4,5,6,7-tetrahydro-1H-indol-3-yl]-propionamide]
–	< 30 nM	CNC(=O)CCc1c(/C=C2\C(=O)Nc3ccccc32)[nH]c2c1CCCC2 [Example 201, N-Methyl-3-[2-(2-oxo-1,2-dihydroindol-3-ylidenemethyl)-4,5,6,7-tetrahydro-1H-indol-3-yl]-propionamide]
–	< 30 nM	O=C(CCc1c(/C=C2\C(=O)Nc3ccccc32)[nH]c2c1CCCC2)NCCN1CCOCC1 [Example 202, N-(2-Morpholin-4-ylethyl)-3-[2-(2-oxo-1,2-dihydroindol-3-ylidenemethyl)-4,5,6,7-tetrahydro-1H-indol-3-yl]-propionamide]
> 50000 nM	< 70 nM	Cc1c[nH]c(/C=C2\C(=O)Nc3ccc(Cl)cc32)c1CCC(=O)O [Example 216, 3-[2-(5-Chloro-2-oxo-1,2-dihydroindol-3-ylidenemethyl)-4-methyl-1H-pyrrol-3-yl]-propionic acid]
> 50000 nM	–	COc1ccc2c(c1)NC(=O)/C2=C\c1[nH]cc(C)c1CCC(=O)O [Example 217, 3-[2-(6-Methoxy-2-oxo-1,2-dihydroindol-3-ylidenemethyl)-4-methyl-1H-pyrrol-3-yl]-propionic acid]
> 50000 nM	–	COc1ccc2c(c1)/C(=C/c1[nH]cc(C)c1CCC(=O)O)C(=O)N2 [Example 222, 3-[2-(5-Methoxy-2-oxo-1,2-dihydroindol-3-ylidenemethyl)-4-methyl-1H-pyrrol-3-yl]-propionic acid]
